Experimental data reported in patent US3950527A, “N-[ω-(4'-(3"-indolyl)-piperidino)-alkyl]-benzamides” (Roussel-UCLAF, priority 1974, dated 1976).

Key:
[1] = Acute toxicity; conditions: mouse, in vivo, ip; mice, intraperitoneal, mortality after 48 hours; read-out: DL50, acute toxicity
Procedure: The acute toxicity was determined by intraperitoneal administration of the test compounds to mice in increasing doses and determination of the mortality after 48 hours to determine the DL50 dose.

[2] = Antagonism to toxicity of amphetaminic compounds; type: in vivo; conditions: Mus musculus, ip; male mice, intraperitoneal 30 minutes before 15 mg/kg i.p. dexamphetamine sulfate; group mortality at 24 hours; read-out: DE50, Antagonism to toxicity of amphetamines
Procedure: C. Antagonism to toxicity of amphetaminic compounds
This test was determined on groups of 10 male mice in a crystallizer with a 20 cm diameter and a 9 cm height covered with a grill. The animals received an intraperitoneal injection of 15 mg/kg of dexamphetamine sulfate 30 minutes after intraperitoneal administration of the test product. The group mortality was counted 24 hours after the injection of dexamphetamine sulfate and the DE50 dose was determined.

[3] = system: mouse; experiment: Traction Test (neurosedative activity); type: in vivo; conditions: ip, 0.5 h, mice, intraperitoneal, 30 minutes after administration, dose at which 50% of the animals do not reestablish themselves in 5 seconds, read-out: DE50, Traction Test
Text: This test consisted of suspending a mouse by the front paws from a horizontal metal wire and in a time of less than 5 seconds, the normal mouse will effect a reestablishment by managing to place at least one hind paw on the wire. […]

[4] = system: mouse; experiment: Chimney Test (neurosedative activity); type: in vivo; conditions: ip, 0.5 h, mice, intraperitoneal, 30 minutes after administration, read-out: DE50, Chimney Test
Procedure: This test consisted of placing a mouse in the end of a glass tube 30 cm long with a diameter adapted to the size of the mouse. The tube was straightened vertically in a rapid manner with the head of the mouse at the base. The normal uprighting time for the mouse in the tube was less than 30 seconds. The test was conducted 30 minutes after intraperitoneal administration of the test product and the DE50 dose was determined and is reported in Table I.

[5] = Cataleptic Power; type: in vivo, young rats; conditions: for cataleptic activity (in words): rat, in vivo
Procedure: D. Cataleptic Power This test is described by Boissier et al. [Therapie., Vol. 18 (1963), p. 1257-1277] and was effected on young rats by crossing the homolateral paws and noting the intensity of catalepsy. The test product was intraperitoneally administered and the DE50 was formed to be greater than 60 mg/kg.

[6] = Antagonism to stereotypes provoked by apomorphine; type: in vivo; conditions: Rattus norvegicus, ip; male rats, intraperitoneal 30 minutes before 1.5 mg intravenous apomorphine hydrochloride; read-out: DE50, antagonism to stereotypes provoked by apomorphine
Procedure: B. Antagonism to sterotypes provoked by apomorphine
(§1) This test used groups of 5 male rats in a test inspired by Janssen et al. [Arzn. Forsch., Vol. 15 (1965), p. 104-117 and Vol. 17 (1967), p. 841-854] with each rat in an individual grill cage. Each animal received an intravenous injection in the vein of the penis of 1.5 mg of apomorphine hydrochloride 30 minutes after intraperitoneal administration of the test compound. The animals, control and treated, were observed 1,5,10 and 15 minutes after the last injection and the stereotype movements of the buccal sphere were evaluated for their intensity on a scale of 0 to 3 as by Boissier et al. [Therapie., Vol. 25 (1970), p. 939-949]. The height of the test was determined and the DE50 dose was ascertained to be 10 mg/kg.

[7] = Antipsychotic activity, overall conclusion from the tests on the product of Example 2; conditions: in vivo
Procedure: This test consisted of using groups of 5 rats which were placed in individual grill cages. The rats received intraperitoneally 8 mg/kg of dexamphetamine sulfate 30 minutes after intraperitoneal administration of the test products and the test used controls and treated animals. The rating scale was that described by Halliwel et al. [Brit. J. Pharmacol., Vol. 23 (1964), p. 330-350] and the DE50 of the product was […].
as §1
(§2) This test was effected on dogs as reported by Chen et al. [J. Pharmac. exp. Therap. Vol. 93 (1950), p. 245-250]. […] The cross tests were repeated after 8 days on lots of 2 dogs and the DE50 dose was determined to be 0.005 mg/kg.

[8] = Antagonism to vomitting provoked by apomorphine; type: in vivo; conditions: Canis lupus familiaris, sc, 0.5 h; dogs, subcutaneous 30 minutes before 0.1 mg/kg s.c. apomorphine hydrochloride; vomitting counted over one half hour; read-out: DE50, antagonism to vomitting provoked by apomorphine
Procedure: C. Antagonism to vomitting provoked by apomorphine
as §2, with “245-250]. The test product was subcutaneously administered 30 minutes before subcutaneous administration of 0.1 mg/kg of apomorphine hydrochloride.” for “245-250].”

[9] = listed as acid succinate of N-[β-(4'-(3"-indolyl)-piperidino)-ethyl]-4-fluoro-benzamide

| Compound | LD50 at 48 h [1] [mg/kg] | ED50 [2] [mg/kg] | ED50 [3] [mg/kg] | ED50 [4] [mg/kg] | ED50 ([5]; Rattus norvegicus, ip, young rats, intraperitoneal, crossing the homolateral paws, read-out: DE50, cataleptic power) [mg/kg] | cataleptic activity (in words) [5] | cataleptic activity (in words) [5, 9] | ED50 [6] [mg/kg] | antipsychotic activity (in words) [7] | antipsychotic activity (in words) [7, 9] | ED50 [8] [mg/kg] |
| --- | --- | --- | --- | --- | --- | --- | --- | --- | --- | --- | --- |
| COc1ccc(S(N)(=O)=O)cc1C(=O)NCCN1CCC(c2c[nH]c3ccccc23)CC1 [Example 8, N-[β-(4'-(3"-indolyl)-piperidino)-ethyl]-2-methoxy-5-sulfamoyl-benzamide] | 800 | – | – | – | – | – | – | – | – | – | – |
| COc1ccc2c(C3CCN(CCNC(=O)c4ccc(F)cc4)CC3)c(C)[nH]c2c1 [Example 5, N-[β-(4'-(2"-methyl-6"-methoxy-3"-indolyl)-piperidino)-ethyl]-p-fluoro-benzamide] | 400 | 3 | 25 | 17 | – | – | – | – | – | – | – |
| O=C(NCCN1CCC(c2c[nH]c3ccccc23)CC1)c1ccccc1 [Example 1, N-[β-(4'-(3"-indolyl)-piperidino)-ethyl]-benzamide] | 300 | 3 | 18 | 7 | – | – | – | – | – | – | – |
| COc1cc(F)ccc1C(=O)NCCN1CCC(c2c[nH]c3ccccc23)CC1 [Example 4, N-[β-(4'-(3"-indolyl)-piperidino)-ethyl]-p-fluoro-o-methoxy-benzamide] | > 800 | 0.35 | 8.5 | 4.5 | – | – | – | – | – | – | – |
| COc1cc(N)c(Cl)cc1C(=O)NCCN1CCC(c2c[nH]c3ccccc23)CC1 [Example 7, N-[β-(4'-(3"-indolyl)-piperidino)-ethyl]-2-methoxy-4-amino-5-chloro-benzamide] | > 800 | – | – | – | – | – | – | – | – | – | – |
| O=C(NCCCN1CCC(c2c[nH]c3ccccc23)CC1)c1ccc(F)cc1 [Example 3, N-[γ-(4'-(3"-indolyl)-piperidino)-propyl]-p-fluorobenzamide] | 60 | 8 | 20 | 5 | – | – | – | – | – | – | – |
| O=C(NCCN1CCC(c2c[nH]c3ccccc23)CC1)c1ccc(F)cc1 [Example 2, N-[β-(4'-(3"-indolyl)-piperidino)-ethyl]-p-fluoro-benzamide acid succinate] | 125 | 0.3 | 6.5 | 2 | > 60 | practically devoid of cataleptigenic activity | without cataleptic properties | 10 | important antipsychotic activity | antipsychotic activity | 0.005 |
